Laboratory results from ChEMBL document CHEMBL4043274, “4-Hydroxy-2-pyridones: Discovery and evaluation of a novel class of antibacterial agents targeting DNA synthesis” (Bioorg Med Chem Lett, 2017).
Values after ≈ are worked out from the molar mass of the structure shown. Active and inactive are the calls of the source. The rule behind the calls is not given here.

What was measured:
Escherichia coli [1] = assay: Antibacterial activity against wild-type Escherichia coli ATCC 25922 by CLSI M100-S17 protocol based method; format: functional
Escherichia coli [2] = assay: Antibacterial activity against Escherichia coli BAS849 by CLSI M100-S17 protocol based method; format: functional
Escherichia coli [3] = assay: Antibacterial activity against quinolone resistant Escherichia coli SKM18 by CLSI M100-S17 protocol based method; format: functional
Escherichia coli [4] = assay: Antibacterial activity against wild-type Escherichia coli ATCC 25922 in presence of human serum albumin by CLSI M100-S17 protocol based method; format: functional
[5] = Selectivity ratio of MIC for wild-type Escherichia coli ATCC 25922 to MIC for Escherichia coli BAS849; format: functional
Escherichia coli [6] = assay: Ratio of MIC in presence to absence of HSA for wild-type Escherichia coli ATCC 25922; format: functional
Acinetobacter baumannii = assay: Antibacterial activity against Acinetobacter baumannii ATCC BAA-747 by CLSI M100-S17 protocol based method; format: functional
Klebsiella pneumoniae = assay: Antibacterial activity against Klebsiella pneumoniae ATCC 35657 by CLSI M100-S17 protocol based method; format: functional
Staphylococcus aureus [7] = assay: Antibacterial activity against wild-type Staphylococcus aureus ATCC 29213 by CLSI M100-S17 protocol based method; format: functional
Staphylococcus aureus [8] = assay: Inhibition of protein synthesis in wild-type Staphylococcus aureus ATCC 29213 at 1.6 ug/ml; format: functional
Staphylococcus aureus [9] = assay: Inhibition of DNA synthesis in wild-type Staphylococcus aureus ATCC 29213 at MIC; format: functional
[10] = Selectivity ratio of MIC for quinolone resistant Escherichia coli SKM18 to MIC for wild-type Escherichia coli ATCC 25922; format: functional
Staphylococcus aureus [11] = assay: Antibacterial activity against multidrug resistant Staphylococcus aureus by broth microdilution assay; format: functional
Escherichia coli [12] = assay: Antibacterial activity against wild-type Escherichia coli ATCC 25922 infected in iv dosed CD-1 mouse assessed as mouse survival treated for 1 hr followed by reinfection with bacteria measured at 96 hrs post infection; format: functional; conditions: ATCC 25922, iv, read-out: PD50
[13] = Inhibition of DNA gyrase-A in Escherichia coli ATCC 25922 using relaxed pBR322 DNA as substrate after 30 mins by ethidium bromide staining based agarose gel electrophoresis method
[14] = system: Escherichia coli ATCC 25922; assay: (§1) Inhibition of Escherichia coli ATCC 25922 topoisomerase-4 ParC at 100 uM using kinetoplast DNA as substrate after 60 mins relative to control
[15] = as §1
Escherichia coli [16] = assay: Antibacterial activity against clinical isolates of Escherichia coli by broth microdilution assay; format: functional
Rattus norvegicus = assay: Dose normalized AUC (0 to 24 hrs) in Sprague-Dawley rat at 5 mg/kg, iv administered as single dose; format: ADME, organism-based; conditions: in vivo
[17] = Terminal half life in Sprague-Dawley rat at 5 mg/kg, iv administered as single dose; format: ADME, organism-based; conditions: in vivo, read-out: beta t1/2 (converted)
[18] = Volume of distribution at steady state in Sprague-Dawley rat at 5 mg/kg, iv administered as single dose; format: ADME, organism-based; conditions: in vivo, read-out: Vdss
[19] = Oral bioavailability in Sprague-Dawley rat; format: ADME, organism-based; conditions: in vivo
[20] = Protein binding in mouse plasma; format: ADME, cell-free; conditions: read-out: PPB (converted)

SMILES	MIC (Escherichia coli [1])	MIC (Escherichia coli [2])	MIC (Escherichia coli [3])	MIC (Escherichia coli [4])	Ratio (Escherichia coli [6])	MIC (Acinetobacter baumannii)	MIC (Klebsiella pneumoniae)	other results
CCc1c(-c2ccc(N(C)C)c(F)c2)[nH]c(=O)c(C(=O)O)c1O	7.8 µg/mL (≈ 24.4 µM)	0.39 µg/mL (≈ 1.22 µM)	–	–	–	–	–	–
CCc1c(-c2ccc(N3CCCC3)cc2)[nH]c(=O)c(C(=O)O)c1O	1.6 µg/mL (≈ 4.87 µM)	0.03 µg/mL (≈ 0.0914 µM)	> 62.5 µg/mL	> 62.5 µg/mL	>30 - 40	–	–	Selectivity ratio [5]: > 50
Cc1c(-c2ccc(N(C)C)cc2)[nH]c(=O)c(C(=O)O)c1O	31.3 µg/mL (≈ 109 µM)	0.39 µg/mL (≈ 1.35 µM)	3.1 µg/mL (≈ 10.8 µM)	–	–	–	–	–
CCc1c(-c2ccc(N3CCC(CNC)C3)cc2)[nH]c(=O)c(C(=O)O)c1O (stereo unspecified)	1.6 µg/mL (≈ 4.31 µM)	0.39 µg/mL (≈ 1.05 µM)	7.8 µg/mL (≈ 21 µM)	6.3 µg/mL	4 - 8	12.5 µg/mL (≈ 33.7 µM)	6.3 µg/mL (≈ 17 µM)	–
CCc1c(O)c(C(=O)O)c(=O)n(Cc2ccccc2)c1-c1ccc(N(C)C)cc1	> 12.5 µg/mL	–	–	–	–	–	–	MIC (Staphylococcus aureus [7]): 1.6 µg/mL (≈ 4.08 µM); inhibition (Staphylococcus aureus [8]): Active; inhibition (Staphylococcus aureus [9]): Active
CCc1c(-c2ccc(N3CCC(C)(CN)C3)cc2)[nH]c(=O)c(C(=O)O)c1O (stereo unspecified)	1.6 µg/mL (≈ 4.31 µM)	0.39 µg/mL (≈ 1.05 µM)	6.3 µg/mL (≈ 17 µM)	–	4 - 8	–	–	–
CCOC(=O)c1c(O)c(CC)c(-c2ccc(N(C)C)cc2)[nH]c1=O	> 12.5 µg/mL	> 12.5 µg/mL	–	–	–	–	–	–
CCc1c(-c2ccc(N3CC=CC3)cc2)[nH]c(=O)c(C(=O)O)c1O	0.78 µg/mL (≈ 2.39 µM)	0.01 µg/mL (≈ 0.0306 µM)	> 62.5 µg/mL	32.2 µg/mL	–	–	–	Selectivity ratio [5]: > 50
CCc1c(-c2ccc(N3CCC(N4CCCC4)C3)cc2)[nH]c(=O)c(C(=O)O)c1O (stereo unspecified)	1.6 µg/mL (≈ 4.03 µM)	0.19 µg/mL (≈ 0.478 µM)	6.3 µg/mL (≈ 15.9 µM)	3.1 µg/mL	<4	3.1 µg/mL (≈ 7.8 µM)	1.6 µg/mL (≈ 4.03 µM)	Selectivity ratio [10]: < 4
CCc1cc(C(=O)O)c(=O)n(C)c1-c1ccc(N(C)C)cc1	> 62.5 µg/mL	1.6 µg/mL (≈ 5.33 µM)	> 62.5 µg/mL	–	–	–	–	–
CCc1c(-c2ccc(N3CCC(C(C)(C)N)C3)cc2)[nH]c(=O)c(C(=O)O)c1O (stereo unspecified)	3.1 µg/mL (≈ 8.04 µM)	0.78 µg/mL (≈ 2.02 µM)	0.78 µg/mL (≈ 2.02 µM)	12.5 µg/mL	4 - 8	> 12.5 µg/mL	6.3 µg/mL (≈ 16.3 µM)	–
COc1c(N2C[C@@H]3CCCN[C@@H]3C2)c(F)cc2c(=O)c(C(=O)O)cn(C3CC3)c12 [MOXIFLOXACIN]	–	–	–	–	–	–	–	MIC50 (Staphylococcus aureus [11]): 4 µg/mL (≈ 9.96 µM); MIC90 (Staphylococcus aureus [11]): 32 µg/mL (≈ 79.7 µM); ED50 (Escherichia coli [12]): < 3 mg/kg
CCc1c(-c2ccc(N3CC4CC4(N)C3)cc2)[nH]c(=O)c(C(=O)O)c1O (stereo unspecified)	1.6 µg/mL (≈ 4.5 µM)	0.04 µg/mL (≈ 0.113 µM)	6.3 µg/mL (≈ 17.7 µM)	> 12.5 µg/mL	–	6.3 µg/mL (≈ 17.7 µM)	3.1 µg/mL (≈ 8.72 µM)	–
CCc1c(-c2ccc(N(C)C)cc2)[nH]c(=O)c(C(=O)O)c1O	0.78 to 0.8 µg/mL (≈ 2.58 to 2.65 µM)	0.03 µg/mL (≈ 0.0992 µM)	15.6 µg/mL (≈ 51.6 µM)	> 25 µg/mL	–	6.3 µg/mL (≈ 20.8 µM)	3.9 µg/mL (≈ 12.9 µM)	MIC (Staphylococcus aureus [7]): 3.1 µg/mL (≈ 10.3 µM); inhibition (Staphylococcus aureus [9]): Active; IC50 [13]: 11000 nM; inhibition [14]: 30%
CCc1c(-c2ccc(N(C)C)c(C)c2)[nH]c(=O)c(C(=O)O)c1O	> 12.5 µg/mL	1.6 µg/mL (≈ 5.06 µM)	–	–	–	–	–	–
CCc1c(-c2ccc(N3CCNCC3)cc2)[nH]c(=O)c(C(=O)O)c1O	6.3 µg/mL (≈ 18.3 µM)	3.1 µg/mL (≈ 9.03 µM)	62.5 µg/mL (≈ 182 µM)	15.6 µg/mL	<3	–	–	–
CCc1c(-c2ccc(N3C[C@@H]4[C@H](C3)[C@H]4NC)cc2)[nH]c(=O)c(C(=O)O)c1O	0.39 µg/mL (≈ 1.06 µM)	0.049 µg/mL (≈ 0.133 µM)	3.1 µg/mL (≈ 8.39 µM)	3.1 µg/mL	4 - 8	1.6 µg/mL (≈ 4.33 µM)	0.39 µg/mL (≈ 1.06 µM)	–
CCc1c(-c2ccc(N(C)C)cc2F)[nH]c(=O)c(C(=O)O)c1O	> 12.5 µg/mL	≤ 0.2 µg/mL	–	–	–	–	–	–
CCc1c(-c2ccc(N3CCC(C4(N(C)C)CC4)C3)cc2)[nH]c(=O)c(C(=O)O)c1O (stereo unspecified)	6.3 µg/mL (≈ 15.3 µM)	0.04 µg/mL (≈ 0.0972 µM)	> 12.5 µg/mL	–	4 - 8	> 25 µg/mL	12.5 µg/mL (≈ 30.4 µM)	–
CCc1c(-c2ccc(N3C[C@@H]4[C@@H](N)[C@@H]4C3)cc2)[nH]c(=O)c(C(=O)O)c1O	0.19 µg/mL (≈ 0.535 µM)	0.049 µg/mL (≈ 0.138 µM)	12.5 µg/mL (≈ 35.2 µM)	0.78 µg/mL	–	0.78 µg/mL (≈ 2.19 µM)	0.39 µg/mL (≈ 1.1 µM)	IC50 [13]: 770 nM; IC50 [15]: 2400 nM; MIC50 (Escherichia coli [16]): 0.25 µg/mL (≈ 0.703 µM); MIC90 (Escherichia coli [16]): 8 µg/mL (≈ 22.5 µM); MIC (Staphylococcus aureus [11]): 0.5 to 8 µg/mL (≈ 1.41 to 22.5 µM); MIC50 (Staphylococcus aureus [11]): 1 µg/mL (≈ 2.81 µM); MIC90 (Staphylococcus aureus [11]): 8 µg/mL (≈ 22.5 µM); AUC/dose (Rattus norvegicus): 30.7 µg·h/mL; half-life [17]: 2.9 h; Vd [18]: 0.54 L/kg; bioavailability [19]: 17%; fraction unbound [20]: 0.12; ED50 (Escherichia coli [12]): 8 mg/kg
O=C(O)c1cn(C2CC2)c2cc(N3CCNCC3)c(F)cc2c1=O [CIPROFLOXACIN]	–	–	–	–	–	–	–	MIC (Staphylococcus aureus [11]): 0.125 to 64 µg/mL (≈ 0.377 to 193 µM); MIC50 (Staphylococcus aureus [11]): 64 µg/mL (≈ 193 µM); MIC90 (Staphylococcus aureus [11]): > 64 µg/mL
CCc1c(-c2ccc(N(C)C)cc2C)[nH]c(=O)c(C(=O)O)c1O	> 12.5 µg/mL	6.3 µg/mL (≈ 19.9 µM)	–	–	–	–	–	–
